The values below are quoted from earlier work in patent publication US12685722B2, “Compositions of matter and pharmaceutical compositions” (Atai Therapeutics, Inc., priority 2020, dated 2026).

In the case of `CN(C)CCc1c[nH]c2cccc(O)c12` [psilocin], the in vivo half-life entry is “about 50 minutes”. In addition, where the note is “in vivo”, the psychedelic experiences lasting is 4 to 6 h.
